For 15 molecules, T/C results are on record in PubChem BioAssay AID262 (DTP/NCI, 2004).

In this experiment the test system is LX-1 lung xenograft sc, nude mice, tumor weight. Kind of experiment: NCI In Vivo Anticancer Drug Screen. Data for tumor model Human Lung LX-1 Xenograft (subcutaneous) in NU/NU Swiss (nude) mice. The conditions noted are these: endpoint: optimum tumor weight change, schedule: Q04DX003 (ip), higher = larger tumour. On the procedure: The antitumor activity of compounds was measured in mice bearing transplantable tumors. Survival or tumor size were measured and the results are expressed as the measurement made in the treated group (T) divided by the measurement made in the vehicle treated control group (C). The tumor model used in this assay is Human Lung LX-1 Xenograft (subcutaneous) in NU/NU Swiss (nude) mice

Where [1] appears, read: dose: 400.0 mg/kg/injection, vehicle: suspension in saline.
The mark [2] stands for this setting: dose: 15.0 mg/kg/injection, vehicle: saline.
The mark [3] stands for this setting: dose: 30.0 mg/kg/injection, vehicle: saline.
Where [4] appears, read: dose: 200.0 mg/kg/injection, vehicle: saline with Tween-80.
Where [5] appears, read: dose: 400.0 mg/kg/injection, vehicle: saline with Tween-80.

One may read the T/C as the result in the treated group divided by that in the control group, in per cent.

“And” between values parts separate entries of the source, which are not always exact repeats. Equal values may be shown once. Starred links: 1 amine or outer side, 2 acyl side, 3 side chain; linkers in the order of their positions; H or OH if unused. Positions of bridges follow the written chain, without caps; N, C: chain ends. Non-standard residues stand in square brackets, D forms with d. Residues, ends and D or L forms follow the SMILES beside them. Chains are numbered I, II in the order given. Actinocin(9to1) = Cc1c2oc3c(C)ccc(C(=O)[*:1])c3nc-2c(C(=O)[*:2])c(N)c1=O; aThr = C[C@H](O)[C@H](N)C(=O)O; NMeV = CN[C@H](C(=O)O)C(C)C; Sar = CNCC(=O)O

On to `CC[C@]1(O)C[C@H]2CN(CCc3c([nH]c4ccccc34)[C@@](C(=O)OC)(c3cc4c(cc3OC)N(C=O)[C@H]3[C@@](O)(C(=O)OC)[C@H](OC(C)=O)[C@]5(CC)C=CCN6CC[C@]43[C@@H]65)C2)C1`, for which the T/C (dose: 0.25 mg/kg/injection, vehicle: saline) is 98 % of control and the T/C (dose: 0.5 mg/kg/injection, vehicle: saline) was 79 % of control.
For `C=CC(=O)N1CN(C(=O)C=C)CN(C(=O)C=C)C1`, the T/C was 89 % of control (dose: 1.5 mg/kg/injection, vehicle: saline with Tween-80); 62 % of control (dose: 3.0 mg/kg/injection, vehicle: saline with Tween-80); 80 % of control (dose: 6.0 mg/kg/injection, vehicle: saline with Tween-80).
With `CC(=O)OCC1OC(n2ccc(N)nc2=O)C(OC(C)=O)C1OC(C)=O` (stereo unspecified), the T/C is 102 % of control (dose: 200.0 mg/kg/injection, vehicle: suspension in saline) and 78 % of control under setting [1].
As to `CCCCNCCCNCCCNC(=O)c1csc(-c2csc(CCNC(=O)C(NC(=O)C(C)C(O)C(C)NC(=O)C(NC(=O)c3nc(C(CC(N)=O)NCC(N)C(N)=O)nc(N)c3C)C(OC3OC(CO)C(O)C(O)C3OC3OC(CO)C(O)C(OC(N)=O)C3O)c3cnc[nH]3)C(C)O)n2)n1` (stereo unspecified), the T/C is, setting by setting: (dose: 8.0 mg/kg/injection, vehicle: saline) 56 % of control; under setting [2], 19 % of control; (dose: 16.0 mg/kg/injection, vehicle: saline) 30 % of control; under setting [3], 20 % of control; (dose: 32.0 mg/kg/injection, vehicle: saline) 26 % of control; (dose: 64.0 mg/kg/injection, vehicle: saline) 19 % of control. Moreover, the T/C (dose: 128.0 mg/kg/injection, vehicle: saline) was 1 % of control.
Regarding `CCC1=C[C@H]2CN(CCc3c([nH]c4ccccc34)[C@@](C(=O)OC)(c3cc4c(cc3OC)N(C)[C@H]3[C@@](O)(C(=O)NC)[C@H](OC(C)=O)[C@]5(CC)C=CCN6CC[C@]43[C@@H]65)C2)C1`, the T/C reads like this: (dose: 0.25 mg/kg/injection, vehicle: water) 69 % of control; (dose: 0.5 mg/kg/injection, vehicle: water) 40 % of control; (dose: 1.0 mg/kg/injection, vehicle: water) 98 % of control.
In the case of `N=c1ccn2c(n1)OC1C(O)C(CO)OC12` (stereo unspecified), the T/C is, setting by setting: (dose: 200.0 mg/kg/injection, vehicle: saline) 66 % of control; (dose: 400.0 mg/kg/injection, vehicle: saline) 83 % of control; under setting [1], 45 % of control and 61 % of control; (dose: 800.0 mg/kg/injection, vehicle: saline) 41 % of control; (dose: 800.0 mg/kg/injection, vehicle: suspension in saline) 17 % of control; (dose: 1600.0 mg/kg/injection, vehicle: saline) 18 % of control. Besides, the T/C (dose: 1600.0 mg/kg/injection, vehicle: suspension in saline) was 27 % of control.
With `O=C(NC1CCCCC1)OCc1c(COC(=O)NC2CCCCC2)c(-c2ccc(Cl)c(Cl)c2)n2c1CCC2`, the T/C was 89 % of control under setting [4]; 88 % of control under setting [5]; 73 % of control (dose: 800.0 mg/kg/injection, vehicle: saline with Tween-80).
Consider `O=NN(CCCl)C(=O)NC1CCCCC1`, for which the T/C is, setting by setting: (dose: 10.0 mg/kg/injection, vehicle: Klucel (hydroxypropylcellulose) (HPC)) 44 % of control; (dose: 20.0 mg/kg/injection, vehicle: Klucel (hydroxypropylcellulose) (HPC)) 32 % of control.
For the molecule `O=NN(CCCl)C(=O)NC1CCC(=O)NC1=O` (stereo unspecified), under “dose: 5.0 mg/kg/injection, vehicle: saline with Tween-80”, the T/C was 49 % of control.
In the case of `O=Cc1ccc(O)c(O)c1`, the T/C was 91 % of control (dose: 12.5 mg/kg/injection, vehicle: saline with Tween-80); 107 % of control (dose: 25.0 mg/kg/injection, vehicle: saline with Tween-80); 114 % of control (dose: 50.0 mg/kg/injection, vehicle: saline with Tween-80).
On to `Cc1c2oc3c(C)ccc(C(=O)N[C@@H]4C(=O)N[C@H](C(C)C)C(=O)N5CCC[C@H]5C(=O)N(C)CC(=O)N(C)[C@@H](C(C)C)C(=O)O[C@H]4C)c3nc-2c(C(=O)N[C@@H]2C(=O)N[C@H](C(C)C)C(=O)N3CCC[C@H]3C(=O)N(C)CC(=O)N(C)[C@@H](C(C)C)C(=O)O[C@H]2C)c(N)c1=O` (I: [aThr][dV]P[Sar][NMeV] / II: [aThr][dV]P[Sar][NMeV]; ester I:1-I:C, II:1-II:C; linker I:N-II:N via Actinocin(9to1)), for which the T/C by setting is: (dose: 150.0 micrograms/kg/injection, vehicle: saline) 122 % of control; (dose: 300.0 micrograms/kg/injection, vehicle: saline) 106 % of control.
For `COc1cccc2c1C(=O)c1c(O)c3c(c(O)c1C2=O)C[C@@](O)(C(=O)CO)C[C@@H]3OC1CC(N)C(O)C(C)O1` (stereo partly specified), the T/C (dose: 4.0 mg/kg/injection, vehicle: water) is 81 % of control.
`Cc1c(N)nc(C(CC(N)=O)NCC(N)C(N)=O)nc1C(=O)NC(C(=O)NC(C)C(O)C(C)C(=O)NC(C(=O)NCCc1nc(-c2nc(C(=O)NCCCNC(C)c3ccccc3)cs2)cs1)C(C)O)C(OC1OC(CO)C(O)C(O)C1OC1OC(CO)C(O)C(OC(N)=O)C1O)c1cnc[nH]1` (stereo unspecified): the T/C was 35 % of control under setting [2] and 35 % of control under setting [3].
Turning to `Cc1c(N)nc([C@H](CC(N)=O)NC[C@H](N)C(N)=O)nc1C(=O)N[C@H](C(=O)N[C@H](C)[C@@H](O)CC(=O)N[C@H](C(=O)NC(O[C@@H]1O[C@@H](C)[C@@H](N)[C@@H](O)[C@H]1O)C(O)c1nc(-c2nc(C(=O)NCCCCN)cs2)cs1)[C@@H](C)O)[C@@H](O[C@@H]1O[C@@H](CO)[C@@H](O)[C@H](O)[C@@H]1O[C@H]1O[C@H](CO)[C@@H](O)[C@H](OC(N)=O)[C@@H]1O)c1c[nH]cn1` (stereo partly specified), the T/C (dose: 2.0 mg/kg/injection, vehicle: saline) is 77 % of control.
Take `NC(=S)N/N=C/c1ccc(O)cn1`: the T/C by setting is: under setting [4], 64 % of control; under setting [5], 76 % of control.
